For this assay, the system named is Abca4−/−Rdh8−/− mice. Put plainly: Bright light-induced retinal degeneration. The format is in vivo, mouse. Conditions: 50 or 200 mg kg−1 bw i.p. 30 min before 10,000 lux for 30 min; SD-OCT and HE seven days later. As for the experimental part:
Abca4^−/−Rdh8^−/−42 mice with a 129Sv/Ev or C57BL/6 mixed background were used for light-induced retinal degeneration assays. […] Male and female C57BL/6 mice (Jackson Laboratory, Bar Harbor, ME) at six weeks of age were used to test the effects of YC-001 treatment on the retinoid cycle and bw as well as to determine parenterally administrated YC-001 enter the eyes. YC-001 was dissolved in DMSO at 80-160 mg mL^−1, and the solution was provided to mice by i.p. injection. All mice were housed and maintained in a 12 h light (≤10 lux)/12 h dark cycle in the Animal Resource Center at the School of Medicine, CWRU. […]
Retinal degeneration was initiated by exposing Abca4^−/−Rdh8^−/− mice for 30 min to white light with an intensity of 10,000 lux (150-W spiral lamp, Hampton Bay, Home Depot, Atlanta, GA USA). […] Retinal structures were analyzed by SD-OCT seven days after bright light exposure. […]
To assess the effect of YC-001 treatment on Abca4^−/−Rdh8^−/− mice following bright light-induced retinal degeneration, we performed ultrahigh-resolution SD-OCT (Bioptigen, Morrisville, NC) for in vivo imaging of mouse retinas. […] To measure changes to photoreceptors in the retinas challenged with bright light and assess the effect of YC-001 on retinal protection, the thickness of the ONL was measured along the scanned SD-OCT image at 8 points from the nasal to temporal end of the retina. […]

As to `O=C1OCC(c2ccc(Cl)s2)=C1c1cccs1` [YC-001], the “protection of the ONL from light-induced damage” value is reported as “dose-dependent protection of the ONL”.

Values taken from patent US12251373B2, “Compounds and methods of treating retinal degeneration” (CASE WESTERN RESERVE UNIVERSITY, priority 2017, dated 2025).
